Test results taken from patent US20080176866A1, “NOVEL HETARYL-PHENYLENEDIAMINE-PYRIMIDINES AS PROTEIN KINASE INHIBITORS” (priority 2006, published 2008).

Assays:
CDK2/CycE = molecular target: T1, CDK2/CycE (Homo sapiens, UniProt P24941); experiment: CDK2/CycE kinase assay (HTRF); format: biochemical; conditions: 10 μM ATP
T1 construct: GST; purchased ProQinase GmbH, Freiburg; host or cells: baculovirus-infected insect cells (Sf9)
Protocol: The CDK2/CycE inhibitory activity of the substances of this invention was measured in the CDK2/CycE-HTRF assay (HTRF=Homogeneous Time Resolved Fluorescence) described in the following paragraphs.
Recombinant CDK2-GST and CycE-GST fusion proteins purified from baculovirus-infected insect cells (Sf9) were purchased from ProQinase GmbH, Freiburg. The substrate used for the kinase reaction was the biotinylated peptide biotin-Ttds-YISPLKSPYKISEG (C terminus in amide form) which can be purchased for example from JERINI Peptide Technologies (Berlin).
CDK2/CycE was incubated in the presence of various concentrations of test substances in 5 μL of assay buffer [50 mM Tris/HCl pH 8.0, 10 mM MgCl2, 1.0 mM dithiothreitol, 0.1 mM sodium orthovanadate, 10 μM adenosine triphosphate (ATP), 0.75 μM substrate, 0.01% (v/v) Nonidet-P40 (Sigma), 1% (v/v) dimethyl sulphoxide] at 22° C. for 60 min. The concentration of CDK2/CycE was adapted to the particular activity of the enzyme and adjusted so that the assay operated in the linear range. Typical concentrations were in the region of 1 ng/ml. The reaction was stopped by adding 5 μl of a solution of HTRF detection reagents (0.2 μM streptavidin-XLent and 3.4 nM phospho-(Ser) CDKs substrate antibody [product #2324B, Cell Signaling Technology, Danvers, Mass., USA] and 4 nM Prot-A-EuK [protein A labelled with Europium cryptate from C is biointernational, France, product No. 61 PRAKLB]) in aqueous EDTA solution (100 mM EDTA, 800 mM KF, 0.2% (w/v) bovine serum albumin (BSA) in 100 mM HEPES/NaOH pH 7.0).
(§1) The resulting mixture was incubated at 22° C. for 1 h in order to allow formation of a complex of the biotinylated phosphorylated substrate and the detection reagents. The amount of phosphorylated substrate was then estimated by measuring the resonance energy transfer from the Prot-A-EuK to the streptavidin-XLent. For this purpose, the fluorescence emissions at 620 nm and 665 nm after excitation at 350 nm were measured in an HTRF measuring instrument, e.g. a Rubystar (BMG Labtechnologies, Offenburg, Germany) or a Viewlux (Perkin-Elmer). The ratio of the emissions at 665 nm and at 622 nm was taken as a measure of the amount of phosphorylated substrate. The data were normalized (enzymic reaction without inhibitor=0% inhibition, all other assay components but no enzyme=100% inhibition) and IC50 values were calculated with a 4-parameter fit using an inhouse software.

human Aurora-C = molecular target: T2, human Aurora-C (Homo sapiens, UniProt Q9UQB9); experiment: Aurora-C kinase assay (HTRF); format: biochemical; conditions: GST-human Aurora-C, 10 μM ATP
T2 construct: GST; made in house; host or cells: transiently transfected HEK293 cells
T2 sequence (Q9UQB9 1-309): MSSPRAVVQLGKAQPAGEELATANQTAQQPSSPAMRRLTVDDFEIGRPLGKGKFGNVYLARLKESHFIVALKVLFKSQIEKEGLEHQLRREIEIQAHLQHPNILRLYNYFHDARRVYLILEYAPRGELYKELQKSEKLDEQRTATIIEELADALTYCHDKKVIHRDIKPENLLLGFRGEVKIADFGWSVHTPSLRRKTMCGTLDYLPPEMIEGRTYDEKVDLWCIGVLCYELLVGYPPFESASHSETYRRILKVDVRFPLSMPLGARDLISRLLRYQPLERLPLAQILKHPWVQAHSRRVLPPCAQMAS
Protocol: The Aurora-C inhibitory activity of the substances of this invention was measured in the Aurora-C-HTRF assay (HTRF=Homogeneous Time Resolved Fluorescence) described in the following paragraphs.
Recombinant fusion protein of GST and human Aurora-C was expressed in transiently transfected HEK293 cells and purified by affinity chromatography on glutathione-Sepharose. The substrate used for the kinase reaction was the biotinylated peptide biotin-Ttds-FMRLRRLSTKYRT (C terminus in amide form) which can be purchased for example from JERINI Peptide Technologies (Berlin). Aurora-C was incubated in the presence of various concentrations of test substances in 5 μL of assay buffer [25 mM Hepes/NaOH pH 7.4, 0.5 mM MnCl2, 2.0 mM dithiothreitol, 0.1 mM sodium orthovanadate, 10 μM adenosine triphosphate (ATP), […] substrate, 0.01% (v/v) TritonX-100 (Sigma), 0.05% (w/v) bovine serum albumin (BSA), 1% (v/v) dimethyl sulphoxide] at 22° C. for 60 min. The concentration of Aurora-C was adapted to the particular activity of the enzyme and adjusted so that the assay operated in the linear range. Typical concentrations were in the region of 0.3 nM. The reaction was stopped by adding 5 μl of a solution of HTRF detection reagents (0.2 μM streptavidin-XLent and 1.4 nM anti-phospho-(Ser/Thr)-Akt substrate-Eu-cryptate (C is biointernational, France, product No. 61P02KAE), a Europium-cryptate-labelled phospho-(Ser/Thr)-Akt substrate antibody [product #9611B, Cell Signaling Technology, Danvers, Mass., USA]) in aqueous EDTA solution (40 mM EDTA, 400 mM KF, 0.05% (w/v) bovine serum albumin (BSA) in 25 mM HEPES/NaOH pH 7.0).
as §1, with “anti-phospho-(Ser/Thr)-Akt substrate-Eu cryptate” for “Prot-A-EuK”

KDR kinase = molecular target: T3, KDR kinase (Homo sapiens, UniProt P35968); experiment: KDR kinase assay (HTRF); format: biochemical; conditions: KDR kinase-GST, 10 μM ATP
T3 construct: GST; purchased ProQinase GmbH, Freiburg; host or cells: baculovirus-infected insect cells (Sf9)
Protocol: The KDR-inhibitory activity of the substances of this invention was measured in the KDR-HTRF assay (HTRF=Homogeneous Time Resolved Fluorescence) described in the following paragraphs.
Recombinant KDR kinase-GST fusion protein purified from baculovirus-infected insect cells (Sf9) was purchased from ProQinase GmbH, Freiburg. The substrate used for the kinase reaction was the biotinylated peptide biotin-Ahx-DFGLARDMYDKEYYSVG (C terminus in acid form) which can be purchased for example from Biosynthan GmbH (Berlin-Buch, Germany).
KDR kinase was incubated in the presence of various concentrations of test substances in 5 μL of assay buffer [50 mM Hepes/NaOH pH 7.0, 25 mM MgCl2, 5 mM MnCl2, 1.0 mM dithiothreitol, 0.1 mM sodium orthovanadate, 10 μM adenosine triphosphate (ATP), 0.5 μM substrate, 0.001% (v/v) Nonidet-P40 (Sigma), 1% (v/v) dimethyl sulphoxide] at 22° C. for 45 min. The concentration of KDR was adapted to the particular activity of the enzyme and adjusted so that the assay operated in the linear range. The reaction was stopped by adding 5 μl of a solution of HTRF detection reagents (0.1 μM streptavidin-XLent and 2 nM PT66-Eu chelate, a Europium chelate-labelled anti-phospho-tyrosine antibody from Perkin Elmer) in aqueous EDTA solution (125 mM EDTA, 0.2% (w/v) bovine serum albumin (BSA) in 50 mM HEPES/NaOH pH 7.0).
as §1, with “of” for “of a complex of”, “streptavidin-XLent and PT66-Eu chelate.” for “detection reagents.”, “PT66-Eu chelate” for “Prot-A-EuK”

CDK1/CycB = molecular target: T4, CDK1/CycB (Homo sapiens, UniProt P06493); experiment: CDK1/CycB kinase assay; format: biochemical; conditions: 0.5 μM ATP, histone IIIS, 33P filter assay
T4 construct: GST; purchased ProQinase GmbH, Freiburg; host or cells: baculovirus-infected insect cells (Sf9)
Protocol: Recombinant CDK1- and CycB-GST fusion proteins, purified from baculovirus-infected insect cells (Sf9), were purchased from ProQinase GmbH, Freiburg. The histone IIIS used as kinase substrate can be purchased from Sigma.
CDK1/CycB (5 ng/μL) was incubated in the presence of various concentrations of test substances (0 μM, and within the range 0.01-100 μM) in 40 μL of assay buffer [50 mM Tris/HCl pH 8.0, 10 mM MgCl2, 0.1 mM Na ortho-vanadate, 1.0 mM dithiothreitol, 0.025% PEG 20000, 0.5 μM ATP, 10 μM histone IIIIS, 0.2 μCi/measurement point ^33P-gamma ATP, 0.05% NP40, 1.25% dimethyl sulphoxide] at 22° C. for 10 min. The reaction was stopped by adding EDTA solution (250 mM, pH 8.0, 15 μl/measurement point).
15 μl of each reaction mixture were loaded onto P30 filter strips (from Wallac), and non-incorporated ^33P-ATP was removed by washing the filter strips three times in 0.5% strength phosphoric acid for 10 min each time. After the filter strips had been dried at 70° C. for 1 hour, the filter strips were covered with scintillator strips (MeltiLex™ A, from Wallac) and baked at 90° C. for 1 hour. The amount of incorporated ^33P (substrate phosphorylation) was determined by scintillation measurement in a gamma radiation counter (Wallac).
The measured data were normalized to 0% inhibition (enzyme reaction without inhibitor) and 100% inhibition (all assay components except enzyme). The IC50 values were determined by means of a 4-parameter fit using the company's own software.

[1] = test system: human MCF7 breast tumour cells; experiment: MCF7 proliferation assay; format: cell-based; conditions: 96 h, 4 days incubation, crystal violet staining
Protocol: Cultivated human MCF7 breast tumour cells (ATCC HTB-22) were plated out in a density of 5000 cells/measurement point in 200 μl of growth medium (RPMI1640, 10% foetal calf serum, 2 mU/mL insulin, 0.1 nM oestradiol) in a 96-well multititre plate. After 24 hours, the cells from a plate (zero plate) were stained with crystal violet (see below), while the medium in the other plates was replaced by fresh culture medium (200 μl) to which the test substances had been added in various concentrations (0 μM, and in the range 0.01-30 μM; the final concentration of the solvent dimethyl sulphoxide was 0.5%). The cells were incubated in the presence of the test substances for 4 days. The cell proliferation was determined by staining the cells with crystal violet: the cells were fixed by adding 20 μl/measurement point of an 11% strength glutaraldehyde solution at room temperature for 15 min. After the fixed cells had been washed three times with water, the plates were dried at room temperature. The cells were stained by adding 100 μl/measurement point of a 0.1% strength crystal violet solution (pH adjusted to pH 3 by adding acetic acid). After the stained cells had been washed three times with water, the plates were dried at room temperature. The dye was dissolved by adding 100 μl/measurement point of a 10% strength acetic acid solution, and the extinction was determined by photometry at a wavelength of 595 nm. The percentage change in cell growth was calculated by normalizing the measurements to the extinctions of the zero point plate (=0%) and the extinction of the untreated (0 μM) cells (=100%). The IC50 values were determined by means of a 4-parameter fit using the company's own software.

T3 sequence (P35968 807-1356 limits assumed): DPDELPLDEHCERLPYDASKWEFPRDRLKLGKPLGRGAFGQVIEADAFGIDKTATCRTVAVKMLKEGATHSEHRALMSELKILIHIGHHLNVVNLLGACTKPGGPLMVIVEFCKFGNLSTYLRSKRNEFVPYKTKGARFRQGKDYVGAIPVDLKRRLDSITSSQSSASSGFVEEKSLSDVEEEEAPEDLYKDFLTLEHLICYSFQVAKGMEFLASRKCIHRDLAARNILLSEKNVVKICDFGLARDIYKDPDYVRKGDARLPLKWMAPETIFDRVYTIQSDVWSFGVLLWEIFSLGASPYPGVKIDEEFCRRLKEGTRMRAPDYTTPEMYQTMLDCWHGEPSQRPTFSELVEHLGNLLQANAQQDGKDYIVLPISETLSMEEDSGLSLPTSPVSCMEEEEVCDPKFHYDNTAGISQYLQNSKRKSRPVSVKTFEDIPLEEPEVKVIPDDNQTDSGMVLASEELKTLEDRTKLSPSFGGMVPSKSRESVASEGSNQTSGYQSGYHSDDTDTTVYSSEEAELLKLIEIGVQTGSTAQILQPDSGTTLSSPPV
T4 sequence (P06493 whole entry): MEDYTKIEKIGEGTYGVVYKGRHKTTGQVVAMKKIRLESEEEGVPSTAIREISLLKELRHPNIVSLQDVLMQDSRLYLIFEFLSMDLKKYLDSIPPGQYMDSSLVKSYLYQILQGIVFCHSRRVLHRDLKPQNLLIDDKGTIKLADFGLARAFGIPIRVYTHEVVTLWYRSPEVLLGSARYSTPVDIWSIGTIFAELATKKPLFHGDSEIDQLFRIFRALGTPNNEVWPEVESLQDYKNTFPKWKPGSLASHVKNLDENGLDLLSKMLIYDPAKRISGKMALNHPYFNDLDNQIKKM
T4 sequence (P14635 whole entry partner): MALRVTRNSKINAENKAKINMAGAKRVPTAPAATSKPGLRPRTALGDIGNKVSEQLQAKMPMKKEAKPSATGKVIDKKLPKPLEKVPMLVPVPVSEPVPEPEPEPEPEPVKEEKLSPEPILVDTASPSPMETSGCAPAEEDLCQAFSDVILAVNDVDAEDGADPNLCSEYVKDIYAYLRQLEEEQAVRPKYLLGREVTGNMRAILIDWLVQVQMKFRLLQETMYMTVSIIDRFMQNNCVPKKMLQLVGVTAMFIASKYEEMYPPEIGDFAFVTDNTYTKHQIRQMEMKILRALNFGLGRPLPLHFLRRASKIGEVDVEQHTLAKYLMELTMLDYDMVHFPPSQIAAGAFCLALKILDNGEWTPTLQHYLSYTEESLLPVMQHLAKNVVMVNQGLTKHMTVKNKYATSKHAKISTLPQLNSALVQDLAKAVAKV

Brc1cnc(Nc2cccc(Nc3ncc(Br)c(NCCc4c[nH]cn4)n3)c2)nc1NCCc1c[nH]cn1 [Example 28]
IC50 (CDK2/CycE): 670 nM
IC50 (human Aurora-C): 120 nM
IC50 (KDR kinase): 23 nM

Cc1cc(C)nc(Sc2ccc(Nc3ncc(Br)c(O[C@H](C)[C@@H](C)O)n3)cc2)n1 [Example 41]
IC50 (CDK1/CycB): 98 nM
IC50 (CDK2/CycE): 60 nM
IC50 (KDR kinase): 1400 nM
IC50 [1]: 800 nM
